Consider 1 compound from patent US20170119806A1, “[…] LACTONE DERIVATIVES AND METHODS OF MAKING AND USING THEREOF” (OHIO STATE INNOVATION FOUNDATION, priority 2014, published 2017).

One test has as its system human primary NK cells. The experiment in a line: IFN-γ production by NK cells (intracellular flow cytometry, ELISA). The conditions noted are these: 10 μM PL-C, 18 h. In kind it is cell-based. On the procedure: (A) Chemical structure of PL-C (phyllanthusmin C, 4), (9) Healthy donor PBMCs (left panel) or enriched NK cells (right panel) were treated with DMSO vehicle control or 10 μM PL-C for 18 h in the presence of […] (10 ng/mL) or IL-15 (100 ng/mL). The cells were harvested and analyzed by intracellular flow cytometry to determine the frequency of IFN-γ^+ cells in CD56^+CD3^− NK cells (n=8 for PBMC and n=5 for enriched NK). (C) Highly purified (≧99.5%) human primary NK cells were treated with 10 μM PL-C for 18 h to determine the levels of IFN-γ secretion by ELISA. IFN-γ secretion from treatment with PL-C alone (left panel) or in combination with IL-12 (10 ng/mL, middle panel) or IL-15 (100 ng/mL, right panel) is shown. (D) Cells were treated as described in (C) and harvested at 12 h, IFNG mRNA expression was assessed by real-time RT-PCR, and the relative IFNG mRNA expression of each treatment was normalized to untreated vehicle control in the same donor. Data are shown as mean±SEM (n=6 in each treatment; error bars represent SEM). *p<0.05, **p<0.01, which denote statistical comparison between the two marked treatment groups (B-D). (E) Highly purified (≧99,5%) primary human NK cells were treated with 10 μM. PL-C in combination with various concentrations of IL-12 (10, 1, and 0.1 ng/mL) or IL-15 (100, 10, and 1 ng/mL) for 24 h to determine the levels of IFN-γ secretion. Representative data from one of three donors with the similar data are shown. *p<0.05, **p<0.01, which denote statistical comparison between the two marked treatment groups and are calculated from data of all tested donors. Error bars represent SD. […]
Isolation of PBMCs and NK cells. […] The purity of enriched NK cells was ≧80% assessed by flow cytometric analysis after staining with CD56-allophycocyanin and CD3-FITC Abs (BD Bio-sciences, San Jose, Calif.). […] The purity of magnetic bead-purified NK cells was ≧99.5%, as determined by the aforementioned flow cytometric analysis. […]

The subject of test [1] is STAT3, STAT4, STAT5, T-BET. The experiment in a line: Immunoblotting of STATs and T-BET in NK cells. The conditions noted are these: 5 or 10 μM PL-C, 4 h, with IL-12 or IL-15; listed as PL-C. The format is cell-based, human. On the procedure:
(A) Purified human primary NK cells were treated with 10 μM PL-C in the presence of IL-2 (10 ng/mL) or IL-15 (100 ng/mL) for 12 hours. DMSO-treated cells served as vehicle controls. Cell pellets were harvested to extract total RNA for real-time RT-PCR to determine mRINA expression levels of IL-12Rβ1, IL-12Rβ2, IL-15Rα and IL-15β. Data are shown as means of 3 donors, * and ** indicate p<0.05 and p<0.01, respectively, which denote a statistical comparison between the two marked treatment groups. Error bars represent S.D. (B, C) Purified primary NK cells (B) or NKL cells (C) were treated with 5 or 10 μM PL-C in the presence of IL-12 (10 ng/mL) or IL-15 (100 ng/mL) for 4 hours. DMSO-treated cells served as vehicle controls. Cell pellets were harvested for subsequent immunoblotting of T-BET, phosphorylated STAT3 (p-STAT3), p-STAT4, p-STAT5, STAT3, STAT4, and STAT5. Data represent 1 out of 3 donors with similar data (B) and 3 independent experiments with similar results (C). Numbers underneath each lane represent quantification of detected protein by densitometry, after normalizing to β-actin.
Immunoblotting. Immunoblotting was performed as described previously (Yu J et al. Immunity 2006, 24, 575-590; Yu J et al. Blood 2010, 115, 274-281). […]

Entries after “also recorded” stand apart in the source; their conditions may differ.

For the compound `COc1cc2c(OC3OCC(O)C(O)C3O)c3c(c(-c4ccc5c(c4)OCO5)c2cc1OC)C(=O)OC3` (stereo not drawn) [Compound 4, Phyllanthusmin C], the “IFN-γ production/secretion by human NK cells” value in the test with human primary NK cells (alone or with IL-12 (10 ng/mL) or IL-15 (100 ng/mL), listed as PL-C) is “enhanced IFN-γ production; also recorded: can induce NK cell IFN-γ production; also recorded: induced NK cell secretion of IFN-γ even in the absence IL-12 or IL-15; also recorded: enhanced NK cell IFN-γ secretion in the presence of IL-12 or IL-15 stimulation; also recorded: enhanced by PL-C”. Besides, the “IFN-γ production induced by Pam3CSK4 or FSL-1 in NK cells” value with human primary NK cells (ligands 1 μg/mL, IL-12 (10 ng/mL)) is listed as “enhanced IFN-γ production”. Moreover, the “total or phosphorylated STAT3, STAT4, STAT5 and T-BET in NK or NKL cells” value in test [1] is on record as “No upregulation; also recorded: no significant change of T-BET”.
